ChEMBL document CHEMBL3856191, “Structural modifications at the 6-position of thieno[2,3-d]pyrimidines and their effects on potency at FLT3 for treatment of acute myeloid leukemia” (Eur J Med Chem, 2016)

Key:
[1] = biological target: Mitogen-activated protein kinase 11 (Homo sapiens) (UniProt Q15759); test: Inhibition of human SAPK2b assessed as remaining activity at 10 uM in presence of [gamma-32P]ATP by […] assay
[2] = biological target: Mitogen-activated protein kinase 10 (Homo sapiens) (UniProt P53779); test: Inhibition of recombinant human JNK3 expressed in insect Sf21 cells assessed as remaining activity at 10 uM preincubated for 15 mins followed by ATF2 substrate addition for 30 mins in presence of [gamma-32P]ATP by […] assay
[3] = biological target: MAP kinase-activated protein kinase 2 (Homo sapiens) (UniProt P49137); test: Inhibition of recombinant human MAPKAPK2 expressed in Escherichia coli assessed as remaining activity at 10 uM preincubated for 15 mins followed by MAPKAPK substrate peptide addition for 30 mins in presence of [gamma-32P]ATP by […] assay
MAP kinase-activated protein kinase 2 (Homo sapiens), sequence (P49137 whole entry, looked up): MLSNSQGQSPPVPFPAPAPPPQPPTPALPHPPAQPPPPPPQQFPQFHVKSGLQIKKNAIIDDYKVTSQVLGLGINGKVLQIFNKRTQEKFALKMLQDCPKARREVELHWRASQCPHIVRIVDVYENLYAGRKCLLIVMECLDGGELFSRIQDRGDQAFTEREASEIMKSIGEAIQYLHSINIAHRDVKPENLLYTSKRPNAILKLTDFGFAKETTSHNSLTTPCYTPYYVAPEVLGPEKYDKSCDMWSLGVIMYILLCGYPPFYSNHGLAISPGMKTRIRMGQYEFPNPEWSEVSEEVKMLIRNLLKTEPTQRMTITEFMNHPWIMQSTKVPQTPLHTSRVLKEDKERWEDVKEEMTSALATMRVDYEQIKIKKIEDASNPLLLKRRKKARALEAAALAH

[4] = Elimination half life in Sprague-Dawley rat at 5 mg/kg, iv by LC/MS/MS analysis; type: ADME, organism-based; details: in vivo, read-out: beta t1/2 (converted)
cells [5] = details: Homo sapiens, K562, 48 h
Description: Growth inhibition of human K562 cells after 48 hrs by XTT assay

[6] = Tmax in Sprague-Dawley rat at 30 mg/kg, po by LC/MS/MS analysis; type: ADME, organism-based; details: in vivo
[7] = biological target: PI3-kinase p110-delta/p85-alpha (Homo sapiens) (UniProt P27986+O00329); test: Inhibition of PI3K p110delta/p85alpha (unknown origin) assessed as remaining activity at 10 uM in presence of [gamma-32P]ATP by […] assay; type: protein-complex assay
[8] = biological target: Protein kinase C alpha type (Homo sapiens) (UniProt P17252); test: Inhibition of recombinant human PKC-alpha expressed in insect Sf9 cells assessed as remaining activity at 10 uM preincubated for 15 mins followed by Histone substrate addition for 30 mins in presence of [gamma-32P]ATP by […] assay
[9] = biological target: PI3-kinase p110-alpha/p85-alpha (Homo sapiens) (UniProt P27986+P42336); test: Inhibition of PI3K P110alpha/p85alpha (unknown origin) assessed as remaining activity at 10 uM in presence of [gamma-32P]ATP by […] assay; type: protein-complex assay
[10] = Clearance in Sprague-Dawley rat at 5 mg/kg, iv up to 24 hrs by LC/MS/MS analysis; type: ADME, organism-based; details: in vivo
Angiopoietin-1 receptor = Angiopoietin-1 receptor (Homo sapiens, UniProt Q02763); test: Inhibition of human TIE2 preincubated for 15 mins followed by substrate addition measured after 30 mins in presence of [gamma-32P]ATP by […] assay
Angiopoietin-1 receptor, sequence (Q02763 whole entry): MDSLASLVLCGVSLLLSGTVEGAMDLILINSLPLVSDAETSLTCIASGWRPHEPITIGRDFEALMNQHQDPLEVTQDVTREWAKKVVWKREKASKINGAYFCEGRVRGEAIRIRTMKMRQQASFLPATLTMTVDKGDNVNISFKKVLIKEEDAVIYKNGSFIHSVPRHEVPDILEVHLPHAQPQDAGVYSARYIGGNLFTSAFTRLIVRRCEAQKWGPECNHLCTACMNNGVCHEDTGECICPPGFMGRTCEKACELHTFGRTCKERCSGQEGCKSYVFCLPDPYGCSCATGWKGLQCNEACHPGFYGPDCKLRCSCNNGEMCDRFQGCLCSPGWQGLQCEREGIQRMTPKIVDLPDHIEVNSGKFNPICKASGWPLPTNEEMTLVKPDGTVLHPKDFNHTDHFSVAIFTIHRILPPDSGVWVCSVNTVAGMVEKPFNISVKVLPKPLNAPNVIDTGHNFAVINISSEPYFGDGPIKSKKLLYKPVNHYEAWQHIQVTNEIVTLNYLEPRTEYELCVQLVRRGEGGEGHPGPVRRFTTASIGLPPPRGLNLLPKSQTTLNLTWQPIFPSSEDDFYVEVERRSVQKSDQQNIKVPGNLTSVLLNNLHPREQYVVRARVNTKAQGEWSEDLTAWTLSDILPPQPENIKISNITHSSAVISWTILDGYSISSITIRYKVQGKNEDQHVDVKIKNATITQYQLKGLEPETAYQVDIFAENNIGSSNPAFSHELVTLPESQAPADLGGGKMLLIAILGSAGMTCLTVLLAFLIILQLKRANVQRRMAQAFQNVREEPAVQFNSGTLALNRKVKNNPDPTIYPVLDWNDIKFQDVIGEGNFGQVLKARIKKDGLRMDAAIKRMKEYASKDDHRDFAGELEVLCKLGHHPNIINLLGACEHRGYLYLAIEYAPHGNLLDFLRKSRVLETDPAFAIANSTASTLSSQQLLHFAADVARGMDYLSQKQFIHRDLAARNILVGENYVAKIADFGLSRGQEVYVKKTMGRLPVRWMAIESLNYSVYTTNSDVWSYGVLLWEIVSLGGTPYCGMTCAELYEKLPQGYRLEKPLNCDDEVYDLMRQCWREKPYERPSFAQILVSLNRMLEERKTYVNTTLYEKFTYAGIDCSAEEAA

[11] = biological target: Mitogen-activated protein kinase 1 (Homo sapiens) (UniProt P28482); test: Inhibition of recombinant human MAPK1 expressed in Escherichia coli assessed as remaining activity at 10 uM preincubated for 15 mins followed by myelin basic protein substrate addition for 30 mins in presence of [gamma-32P]ATP by […] assay
Mitogen-activated protein kinase 1 (Homo sapiens), sequence (P28482 whole entry): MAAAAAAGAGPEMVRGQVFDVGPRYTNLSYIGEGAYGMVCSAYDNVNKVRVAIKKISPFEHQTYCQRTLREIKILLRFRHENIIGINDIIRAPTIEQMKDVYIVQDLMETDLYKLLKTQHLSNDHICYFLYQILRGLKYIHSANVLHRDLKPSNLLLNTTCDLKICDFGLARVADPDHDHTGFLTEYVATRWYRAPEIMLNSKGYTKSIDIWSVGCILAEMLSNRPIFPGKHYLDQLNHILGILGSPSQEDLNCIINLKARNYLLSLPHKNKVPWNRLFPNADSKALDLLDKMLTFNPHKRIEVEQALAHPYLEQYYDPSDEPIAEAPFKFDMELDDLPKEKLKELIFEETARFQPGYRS

[12] = biological target: Tyrosine-protein kinase SYK (Homo sapiens) (UniProt P43405); test: Inhibition of recombinant human SYK expressed in insect Sf21 cells assessed as remaining activity at 10 uM preincubated for 15 mins followed by poly(Glu:Tyr) substrate addition for 30 mins in presence of [gamma-32P]ATP by […] assay
[13] = biological target: Epidermal growth factor receptor (Homo sapiens) (UniProt P00533); test: Inhibition of human EGFR assessed as remaining activity at 10 uM in presence of [gamma-32P]ATP by […] assay
[14] = biological target: Mitogen-activated protein kinase 14 (Homo sapiens) (UniProt Q16539); test: Inhibition of human SAPK2a assessed as remaining activity at 10 uM in presence of [gamma-32P]ATP by […] assay
cells [15] = details: Homo sapiens, MV4-11, 48 h
Description: Growth inhibition of human MV4-11 cells expressing FLT3-ITD after 48 hrs by XTT assay

[16] = Oral bioavailability in Sprague-Dawley rat at 30 mg/kg up to 24 hrs by LC/MS/MS analysis; type: ADME, organism-based; details: in vivo
[17] = biological target: Rho-associated protein kinase 2 (Homo sapiens) (UniProt O75116); test: Inhibition of human recombinant ROCK-2 expressed in sf21 cells assessed as remaining activity at 10 uM preincubated for 15 mins followed by Long S6 kinase substrate addition measured after 30 mins in presence of [gamma-32P]ATP by […] assay
Rho-associated protein kinase 2 (Homo sapiens), sequence (O75116 whole entry, looked up): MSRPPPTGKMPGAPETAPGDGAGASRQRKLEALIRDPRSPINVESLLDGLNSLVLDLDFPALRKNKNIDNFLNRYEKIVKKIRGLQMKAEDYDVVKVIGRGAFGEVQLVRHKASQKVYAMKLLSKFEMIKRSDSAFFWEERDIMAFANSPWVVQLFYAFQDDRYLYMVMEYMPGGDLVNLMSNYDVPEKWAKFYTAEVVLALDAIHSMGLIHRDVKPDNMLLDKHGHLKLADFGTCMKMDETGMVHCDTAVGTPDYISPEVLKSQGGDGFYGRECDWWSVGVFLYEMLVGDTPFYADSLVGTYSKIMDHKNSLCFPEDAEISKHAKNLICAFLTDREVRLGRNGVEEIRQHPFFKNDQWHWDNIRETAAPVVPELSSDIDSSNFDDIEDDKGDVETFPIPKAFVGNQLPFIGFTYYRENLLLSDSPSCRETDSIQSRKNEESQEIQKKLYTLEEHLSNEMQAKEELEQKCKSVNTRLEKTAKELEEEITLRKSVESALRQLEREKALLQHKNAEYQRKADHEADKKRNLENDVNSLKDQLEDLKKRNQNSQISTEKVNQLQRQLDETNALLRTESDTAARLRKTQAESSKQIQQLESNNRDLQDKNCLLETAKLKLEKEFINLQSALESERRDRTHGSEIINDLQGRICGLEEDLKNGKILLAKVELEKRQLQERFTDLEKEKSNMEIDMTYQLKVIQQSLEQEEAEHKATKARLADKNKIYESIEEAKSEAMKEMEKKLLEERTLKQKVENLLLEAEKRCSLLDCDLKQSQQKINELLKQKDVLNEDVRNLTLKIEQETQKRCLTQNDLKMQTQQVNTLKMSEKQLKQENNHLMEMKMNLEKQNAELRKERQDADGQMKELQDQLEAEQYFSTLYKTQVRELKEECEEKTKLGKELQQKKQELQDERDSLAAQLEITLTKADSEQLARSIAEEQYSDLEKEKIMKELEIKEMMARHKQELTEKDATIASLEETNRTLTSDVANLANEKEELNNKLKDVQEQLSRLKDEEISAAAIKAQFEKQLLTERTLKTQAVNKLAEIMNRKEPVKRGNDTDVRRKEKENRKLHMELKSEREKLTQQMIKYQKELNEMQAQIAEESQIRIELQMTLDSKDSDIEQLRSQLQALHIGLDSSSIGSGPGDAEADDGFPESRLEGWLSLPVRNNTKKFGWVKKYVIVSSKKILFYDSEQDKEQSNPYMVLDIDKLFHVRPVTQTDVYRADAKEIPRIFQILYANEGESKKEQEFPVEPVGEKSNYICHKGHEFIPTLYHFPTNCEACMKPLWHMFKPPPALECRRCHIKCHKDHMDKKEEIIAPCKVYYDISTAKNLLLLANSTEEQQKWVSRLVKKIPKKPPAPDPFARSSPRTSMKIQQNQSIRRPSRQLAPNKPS

[18] = biological target: Tyrosine-protein kinase ABL1 (Homo sapiens, UniProt P00519); test: Inhibition of recombinant human ABL1 expressed in insect cells preincubated for 15 mins followed by poly(Glu:Tyr) substrate addition for 30 mins in presence of [gamma-32P]ATP by […] assay
Tyrosine-protein kinase ABL1, sequence (P00519 whole entry): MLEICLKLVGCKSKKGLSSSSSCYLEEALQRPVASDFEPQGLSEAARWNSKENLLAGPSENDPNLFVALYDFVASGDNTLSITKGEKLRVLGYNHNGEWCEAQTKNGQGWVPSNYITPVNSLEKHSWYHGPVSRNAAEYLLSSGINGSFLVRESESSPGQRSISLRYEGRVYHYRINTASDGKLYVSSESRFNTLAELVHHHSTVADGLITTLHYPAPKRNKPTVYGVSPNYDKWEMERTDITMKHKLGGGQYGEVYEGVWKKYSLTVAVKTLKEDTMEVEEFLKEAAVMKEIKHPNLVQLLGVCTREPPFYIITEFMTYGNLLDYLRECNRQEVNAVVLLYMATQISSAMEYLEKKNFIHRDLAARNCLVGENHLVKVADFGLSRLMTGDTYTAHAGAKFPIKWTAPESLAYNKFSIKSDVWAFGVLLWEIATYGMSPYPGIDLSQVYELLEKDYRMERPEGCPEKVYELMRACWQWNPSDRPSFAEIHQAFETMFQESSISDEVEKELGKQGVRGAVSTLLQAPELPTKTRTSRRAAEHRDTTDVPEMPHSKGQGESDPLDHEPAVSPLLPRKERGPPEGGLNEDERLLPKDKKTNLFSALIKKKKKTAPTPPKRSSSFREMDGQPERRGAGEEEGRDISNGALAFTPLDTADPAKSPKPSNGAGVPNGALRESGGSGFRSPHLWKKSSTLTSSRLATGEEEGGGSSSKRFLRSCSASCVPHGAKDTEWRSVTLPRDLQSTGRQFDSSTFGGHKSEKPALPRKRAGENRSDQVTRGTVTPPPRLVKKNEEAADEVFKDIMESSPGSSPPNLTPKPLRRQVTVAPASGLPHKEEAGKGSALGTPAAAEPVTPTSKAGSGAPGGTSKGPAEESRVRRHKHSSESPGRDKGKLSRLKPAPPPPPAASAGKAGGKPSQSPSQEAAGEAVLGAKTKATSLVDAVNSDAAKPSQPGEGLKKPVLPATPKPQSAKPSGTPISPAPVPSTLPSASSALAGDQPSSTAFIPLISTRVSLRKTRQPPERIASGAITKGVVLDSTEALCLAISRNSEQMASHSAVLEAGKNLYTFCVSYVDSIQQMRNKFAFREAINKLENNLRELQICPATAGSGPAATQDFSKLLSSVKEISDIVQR

cells [19] = details: Homo sapiens, HL-60, 48 h
Description: Growth inhibition of human HL60 cells expressing wild type FLT-3 after 48 hrs by XTT assay

[20] = biological target: Tyrosine-protein kinase receptor UFO (Homo sapiens) (UniProt P30530); test: Inhibition of recombinant human AXL expressed in insect Sf21 cells assessed as remaining activity at 10 uM preincubated for 15 mins followed by poly(Glu:Tyr) substrate addition for 30 mins in presence of [gamma-32P]ATP by […] assay
[21] = biological target: Inhibitor of nuclear factor kappa-B kinase subunit alpha (Homo sapiens) (UniProt O15111); test: Inhibition of recombinant human IKK-alpha expressed in insect Sf21 cells assessed as remaining activity at 10 uM preincubated for 15 mins followed by IKKtide substrate addition for 30 mins in presence of [gamma-32P]ATP by […] assay

For `CNCCOc1ccc(-c2sc3nc(-c4cccs4)nc(NN4C(=O)C=C(C)C4=O)c3c2C)cc1.Cl`, which Activity [1] is on record?
Its Activity is 90%.

And the Activity [2]?
The Activity was 96%.

What about the Activity [3] of the same compound?
Its Activity is 63 to 100%.

What about the half-life [4] of the same compound?
The half-life was 7.61 h.

What about the GI50 (cells [5]) of the same compound?
The GI50 was 0.564 µM.

What about the Tmax [6] of the same compound?
The Tmax was 0.25 h.

What about the Activity [7] of the same compound?
Its Activity is 37%.

What about the Activity [8] of the same compound?
The Activity was 81%.

And the Activity [9]?
The Activity was 96%.

What about the clearance [10] of the same compound?
The clearance was 36.6 mL/min/kg.

What about the IC50 (Angiopoietin-1 receptor) of the same compound?
The IC50 was 9.75 µM.

And the Activity [11]?
Its Activity is 114%.

What about the Activity [12] of the same compound?
Its Activity is 80%.

And the Activity [13]?
The Activity was 87%.

And the Activity [14]?
Its Activity is 92%.

What about the GI50 (cells [15]) of the same compound?
The GI50 was 0.54 µM.

And the bioavailability [16]?
The bioavailability was 17%.

What about the Activity [17] of the same compound?
Its Activity is 93%.

And the IC50 [18]?
Its IC50 is 2.88 µM.

And the GI50 (cells [19])?
Its GI50 is 0.25 µM.

And the Activity [20]?
The Activity was 44%.

What about the Activity [21] of the same compound?
The Activity was 101%.
